This note sets out measurements from PMC10848157, “Assessing NH300094, a novel dopamine and serotonin receptor modulator with cognitive enhancement property for treating schizophrenia” (Frontiers in Pharmacology, 2024).

Structures are written as SMILES.

Assay [1] deals with T1, 5-HT7 receptor (Homo sapiens, UniProt P34969).
T1 construct: host or cells: HEK293/5-HT7
Put plainly: 5-HT7 receptor functional assay (Bright-Glo Luciferase assay system). The assay is classed as cell-based. As to conditions: HEK293/5-HT7 cells, read-out: 5HT7R, IC50.

In assay [2] the target is D3 receptor (Homo sapiens, UniProt P35462). Put plainly: D3 receptor functional assay (Nano-Glo luciferase assay system). As to conditions: antagonist activity, CHO-K1/D3 cells, read-out: D3R, IC50. The assay is classed as cell-based.

Usually IC50 stands for the midpoint of a concentration-inhibition curve.

D3 receptor, sequence (P35462 whole entry): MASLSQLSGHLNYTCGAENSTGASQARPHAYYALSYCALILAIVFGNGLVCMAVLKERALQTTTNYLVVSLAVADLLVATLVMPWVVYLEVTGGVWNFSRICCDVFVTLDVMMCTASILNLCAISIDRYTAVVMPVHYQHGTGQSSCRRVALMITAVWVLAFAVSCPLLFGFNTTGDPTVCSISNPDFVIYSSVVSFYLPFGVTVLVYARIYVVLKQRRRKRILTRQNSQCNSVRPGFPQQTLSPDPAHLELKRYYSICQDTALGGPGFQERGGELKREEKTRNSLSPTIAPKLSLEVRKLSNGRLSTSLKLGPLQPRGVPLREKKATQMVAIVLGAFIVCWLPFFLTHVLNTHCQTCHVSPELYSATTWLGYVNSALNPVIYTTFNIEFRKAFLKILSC
T1 sequence (P34969 whole entry): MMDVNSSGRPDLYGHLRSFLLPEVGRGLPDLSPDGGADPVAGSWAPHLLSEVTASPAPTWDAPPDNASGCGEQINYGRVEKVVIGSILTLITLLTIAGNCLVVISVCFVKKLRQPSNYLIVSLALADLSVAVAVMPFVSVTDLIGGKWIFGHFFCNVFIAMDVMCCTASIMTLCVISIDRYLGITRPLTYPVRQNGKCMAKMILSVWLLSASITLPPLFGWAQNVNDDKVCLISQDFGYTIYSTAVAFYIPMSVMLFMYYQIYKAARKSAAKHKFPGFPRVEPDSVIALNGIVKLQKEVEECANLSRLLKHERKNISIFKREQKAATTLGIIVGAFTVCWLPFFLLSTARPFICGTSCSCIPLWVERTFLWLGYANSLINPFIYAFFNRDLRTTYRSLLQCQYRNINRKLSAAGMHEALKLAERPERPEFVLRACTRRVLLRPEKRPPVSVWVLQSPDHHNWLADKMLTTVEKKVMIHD

With `O=C1CCc2cc(OCCCN3CCC(c4noc5cc(F)ccc45)CC3)cc3c2N1CC3` [NH300094, 8-(3-(4-(6-fluorobenzo [d]isoxazol-3-yl)piperidin-1-yl)propoxy)-1,2,5,6-tetrahydro-4H-pyrrolo [3,2,1-ij] quinolin-4-one], the IC50 in assay [1] was 5.52 µM; in assay [2] it was 31.5 ± 23.1 nM.
